Test results taken from US20130116586A1, “USE OF DRONEDARONE OR A PHARMACEUTICALLY ACCEPTABLE SALT THEREOF FOR THE PREPARATION OF A DRUG FOR THE PREVENTION OF ATRIAL FIBRILLATION” (SANOFI, priority 2011, published 2013).
Counter-ions that a name gives are not always drawn.

Columns and labels:
[1] = tested on: patients with permanent atrial fibrillation or flutter; assay: PALLAS study: dronedarone 400 mg bid vs placebo on top of standard therapy; type: in vivo, human; conditions: for unplanned cardiovascular hospitalizations and mortality, events recorded: 400 mg bid; for relative risk of cardiovascular hospitalizations and deaths vs placebo: Cox model
From the text: The PALLAS trial (Permanent Atrial fibriLLAtion outcome Study) using dronedarone on top of standard therapy was designed to evaluate the efficacy of dronedarone on major cardiovascular events in a patient population with permanent AF.
The primary efficacy objective of PALLAS was the reduction of: • 1) major cardiovascular events (stroke, systemic arterial embolism, myocardial infarction or cardiovascular death), or • 2) unplanned cardiovascular hospitalization or death from any cause.
Patients with permanent AF were at least 65 years of age with a 12-lead ECG recorded no more than 14 days prior to randomization showing AF or atrial flutter, documentation in the form of ECG rhythm strips or medical reports indicating AF or atrial flutter for at least 6 months prior to randomization without evidence of sinus rhythm in the intervening period. In addition, both the patient and physician must have reached a decision to allow AF to continue without further efforts to restore sinus rhythm.
Patients were randomized to dronedarone 400 mg bid or placebo.
• 1. NYHA class IV or recent unstable NYHA class III heart failure, where unstable refers to a requirement for intensification of therapy (e.g., increased diuretic, ACE/ARB, or inotropic dosage due to exacerbated symptoms within one month prior to randomization). • 2. Sustained daytime bradycardia <50 bpm without a permanent pacemaker • 3. QTc interval ≧500 ms, or 530 ms if there is ventricular paced rhythm • 4. Hypersensitivity to the active substance or to any of its excipients • 5. Need for co-administration of strong CYP3A4 inhibitors, such as ketoconazole, itraconazole, voriconazole, telithromycin, clarithromycin, nefazodone and ritonavir leading to increased systemic exposure to dronedarone • 6. Need for co-administration of medicinal products capable of inducing torsades de pointes ventricular tachycardia, such as phenothiazines, cisapride, bepridil, tricyclic antidepressants, terfenadine and certain oral macrolides, or Vaughan Williams class I and III antiarrhythmic agents) • 7. Severe hepatic impairment
Treatment was initiated using tablets containing either the placebo or an amount of dronedarone hydrochloride corresponding to 400 mg of dronedarone at a rate of one tablet twice a day with the morning and evening meals.
The anticipated duration of the treatment was variable according to the time at which each patient was included in the study, and could range between 3 months for the last patient included and 3 years for the first patient included.
The results obtained in this trial were analysed by the Kaplan Meier method for the figures, and the relative risk (RR) was estimated using Cox's proportional-effect regression model.
The relative risk (RR) is the ratio of the rates of occurrence of a hospitalization or of a death among the patients on dronedarone, relative to the patients on placebo.

[2] = tested on: patients with permanent atrial fibrillation; conditions: in vivo; cited from earlier work
[3] = tested on: patients with atrial fibrillation/atrial flutter; assay: ATHENA trial, including post-hoc exploratory analysis of patients with AF on all follow-up ECGs; type: in vivo, human; conditions: for patients displaying AF on all ECGs recorded during follow-up: of 2301 patients assigned to dronedarone
Method: • AF/AFL atrial fibrillation or atrial flutter • ATHENA A placebo-controlled, double-blind, parallel arm Trial to assess the efficacy of dronedarone 400 mg bid for the prevention of cardiovascular Hospitalization or death from any cause in patiENts with Atrial fibrillation/atrial flutter • PALLAS Permanent Atrial fibriLLAtion Outcome Study Using Dronedarone on Top of Standard Therapy
For the sake of hypothesis generation, these patients can be considered as having permanent AF. In a post-hoc exploratory analysis of this cohort, the primary study endpoint (time to first CV hospitalization or all-cause death) occurred in 95 patients in the placebo group and 46 in the dronedarone group (HR 0.742, 95% Cl 0.522-1.056; p=0.096). Considering first unplanned CV hospitalizations, 85 patients in the placebo group and 37 on dronedarone reached this secondary study endpoint (HR 0.67, 95% Cl 0.46-0.99; p=0.04). There was a similar trend toward reduction in major cardiovascular events (stroke, ACS, cardiovascular death). These observations from ATHENA supported testing the efficacy of dronedarone for prevention of major cardiovascular events in patients with permanent AF.

[4] = tested on: patients with atrial fibrillation; conditions: in vivo; cited from earlier work
[5] = tested on: patients with atrial fibrillation/atrial flutter; conditions: whole ATHENA trial; cited from earlier work
[6] = tested on: patients hospitalized with symptomatic unstable heart failure and severe left ventricular systolic function; conditions: trial terminated early; cited from earlier work

CCCCc1oc2ccc(NS(C)(=O)=O)cc2c1C(=O)c1ccc(OCCCN(CCCC)CCCC)cc1 [dronedarone hydrochloride]
unplanned cardiovascular hospitalizations and mortality, events recorded ([1]; preliminary results, placebo group 72 events): 114 events
relative risk of cardiovascular deaths vs placebo ([1]; preliminary results, 95% CI 0.98-6.53, p=0.0462): 2.53
relative risk of cardiovascular hospitalizations vs placebo ([1]; preliminary results, 95% CI 1.15-2.12, p=0.0039): 1.56
relative risk of cardiovascular hospitalizations for heart failure vs placebo ([1]; preliminary results, 95% CI 1.22-3.99, p=0.0070): 2.21
relative risk of heart failure related episodes vs placebo ([1]; preliminary results, 95% CI 1.66-3.74, p<0.0001): 2.49
relative risk of cardiovascular hospitalizations and deaths vs placebo ([1]; preliminary results, 95% CI 1.20, 2.17, p=0.001): 1.62
cardiovascular mortality, events recorded ([1]; preliminary results, placebo group 6 events): 15 events
cardiovascular hospitalizations for heart failure, events recorded ([1]; preliminary results, placebo group 16 events): 35 events
heart failure, events recorded ([1]; preliminary results, placebo group 33 events): 80 events
unplanned cardiovascular hospitalizations, events recorded ([1]; preliminary results, placebo group 68 events): 104 events
relative risk of cardiovascular hospitalizations and death vs placebo ([1]; preliminary results, subgroup with NYHA class III heart failure, 95% CI 1.02, 2.44, p=0.041): 1.58
relative risk of cardiovascular hospitalizations and death vs placebo ([1]; preliminary results, subgroup with left ventricular ejection fraction (LVEF)<40%, 95% CI 1.20, 2.30, p=0.002): 1.66
relative risk of cardiovascular hospitalizations and death vs placebo ([1]; preliminary results, subgroup with symptomatic heart failure, 95% CI 1.01, 2.09, p=0.043): 1.46
unplanned cardiovascular hospitalizations and mortality, events recorded ([1]; results (III.1'), placebo group 67 events): 127 events
relative risk of cardiovascular hospitalizations and deaths vs placebo ([1]; results (III.1'), p<0.001): 1.95
relative risk of cardiovascular deaths vs placebo ([1]; results (III.2'), 95% CI 1.00-4.49, p=0.046): 2.11
cardiovascular mortality, events recorded ([1]; results (III.2'), placebo group 10 events): 21 events
relative risk of unplanned hospitalizations for cardiovascular causes vs placebo ([1]; results (III.3'), 95% CI 1.44-2.70, p<0.001): 1.97
unplanned hospitalizations for cardiovascular causes, events recorded ([1]; results (III.3'), placebo group 59 events): 113 events
relative risk of cardiovascular hospitalizations for heart failure vs placebo ([1]; results (III.4'), 95% CI 1.10-2.99, p=0.02): 1.81
cardiovascular hospitalizations for heart failure, events recorded ([1]; results (III.4'), placebo group 24 events): 43 events
relative risk of a heart failure episode or hospitalizations for heart failure vs placebo ([1]; results (III.9), 95% CI 1.57-2.98, p<0.001): 2.16
heart failure episode or hospitalizations for heart failure, events recorded ([1]; results (III.9), placebo group 55 events): 115 events

CCCCc1oc2ccc(NS(C)(=O)=O)cc2c1C(=O)c1ccc(OCCCN(CCCC)CCCC)cc1 [dronedarone, 2-n-Butyl-3-[4-(3-di-n-butylaminopropoxy)benzoyl]-5-methylsulphonamidobenzofuran]
co-primary outcomes, cardiovascular hospitalizations and heart failure events in the dronedarone group ([1]; preliminary review of the unblinded data): highly significant excess of events
rate control [2]: has rate-controlling properties
patients displaying AF on all ECGs recorded during follow-up ([3]; placebo 12.7%): 7.7%
patients displaying AF on all ECGs recorded during follow-up ([3]; placebo 296 of 2,327): 178 patients
HR for first unplanned CV hospitalizations vs placebo ([3]; post-hoc cohort with AF on all ECGs, 95% CI 0.46-0.99, p=0.04): 0.67
HR for primary study endpoint (first CV hospitalization or all-cause death) vs placebo ([3]; post-hoc cohort with AF on all ECGs, 95% CI 0.522-1.056, p=0.096): 0.742
first unplanned CV hospitalizations, patients reaching endpoint ([3]; post-hoc cohort with AF on all ECGs, placebo 85): 37 patients
primary study endpoint (time to first CV hospitalization or all-cause death), patients with event ([3]; post-hoc cohort with AF on all ECGs, placebo 95): 46 patients
rhythm-controlling efficacy [4]: has been demonstrated
major clinical outcomes including cardiovascular hospitalizations or cardiovascular mortality, and stroke [5]: reduced major clinical outcomes
mortality vs placebo [6]: increased mortality
